In patent publication US20260325473A1, “N-Beta-Hydroxybutyryl-Amino Acids and Related Compositions and Methods” (The Board of Trustees of the Leland Stanford Junior …, priority 2023, published 2026):

Tests used:
CNDP2 [1] = molecular target: T1, CNDP2 (Mus musculus, UniProt Q9D1A2); assay: Tissue enzyme activity, WT or CNDP2-KO mouse tissue lysates; type: biochemical; conditions: role: product; for synthesis activity in WT kidney and gut: 1 h, 37° C
T1 sequence (Q9D1A2 1-475): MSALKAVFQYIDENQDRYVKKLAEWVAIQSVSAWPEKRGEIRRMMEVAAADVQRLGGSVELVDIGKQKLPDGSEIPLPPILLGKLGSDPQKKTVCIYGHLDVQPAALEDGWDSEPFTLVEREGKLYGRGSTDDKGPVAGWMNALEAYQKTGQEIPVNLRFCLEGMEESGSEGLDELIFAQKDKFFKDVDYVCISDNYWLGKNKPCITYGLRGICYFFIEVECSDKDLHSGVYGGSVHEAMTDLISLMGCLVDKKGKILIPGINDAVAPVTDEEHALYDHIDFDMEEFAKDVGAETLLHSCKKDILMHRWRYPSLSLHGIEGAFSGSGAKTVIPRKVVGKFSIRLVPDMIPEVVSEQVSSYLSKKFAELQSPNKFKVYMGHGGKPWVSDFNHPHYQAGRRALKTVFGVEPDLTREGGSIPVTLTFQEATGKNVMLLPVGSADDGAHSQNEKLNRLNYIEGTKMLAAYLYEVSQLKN
Protocol: Tissue enzyme activity assays. Mouse tissues were mixed with cold PBS and homogenized using a Benchmark BeadBlaster Homogenizer at 4 °C. Protein concentrations were adjusted and the resulting crude was filtered through a 0.45-μm filter to remove insoluble materials. The in vitro reactions were conducted in Eppendorf tubes with 200 μg protein and incubation with the corresponding substrates at 37° C. for 1 hour. After that time, 10 μl of HCl and 400 μl of ethyl acetate were added in the BHB and lactate reactions and the samples were vortexed for 30 s. Reactions were centrifuged at 4° C. for 10 min at 15,000 r.p.m. and total of 300 μl from the top layer was transferred to a new Eppendorf tube and dried down under a stream of nitrogen. The residue was re-suspended in 100 μl of an 2:1:1 mixture of acetonitrile: methanol: water. The mixture was centrifuged at 4° C. for 10 min at 15,000 r.p.m. and the supernatant was transferred to a LC-MS vial. For carnosine reactions, the reactions were not acidified and were directly quenched with 300 μl of an 2:1:1 mixture of acetonitrile: methanol: water after the 1 h incubation and vortexed for 30 s. The mixture was centrifuged at 4° C. for 10 min at 15,000 r.p.m. and the supernatant was transferred to a LC-MS vial.

[2] = Human ketone ester supplementation study, plasma metabolites; type: in vivo; conditions: 0.3 g/kg ketone ester, 60 min vs baseline
Protocol: Targeted metabolomics. Targeted measurements were performed using an Agilent 6470 triple quadrupole LC-MS instrument. MS analysis was performed using AJS in negative mode. The AJS source parameters were set as follows: the dry gas temperature was set at 250° C. with a gas flow of 12 l/min and the nebulizer pressure at 25 psi; the sheath gas temperature was set to 300° C. with the sheath gas flow set at 12 l/min; and the capillary voltage was set to 3,500 V. Separation of polar metabolites was performed as described above in the ‘Untargeted measurements of metabolites by LC-MS’ section. Multiple reaction monitoring was performed for the indicated metabolites with the listed dwell times, fragmentor voltage, collision energies, cell accelerator voltages and polarities. Quantification of the endogenous metabolite concentrations were performed by generating a standard curve with known concentrations of each metabolite. Metabolite standards were analyzed alongside the plasma samples using the same targeted triple quadrupole LC/MS method. A calibration standard curve generated from the metabolite standard concentrations and total peak areas were used to calculate the concentrations of each endogenous metabolite. The dilution of the plasma during the sample preparation was also taken into account for the quantification.
Human ketone ester supplementation study. Following screening, eligible subjects participated in a randomized, counter-balanced, double-blind, placebo-controlled crossover trial comparing BHB supplementation versus placebo, separated by a minimum of 2 days (ClinicalTrials.gov ID NCT04194450). Pre-menopausal women were tested in the follicular phase (days 3-9). Participants were asked to refrain from structured exercise and alcohol, limit physical activity, and follow a standardized diet (~50% carbohydrate, ~30% fat, ~20% protein) on the day before each trial. After refraining from medication use for 24 hours, participants reported to the Exercise, Metabolism and Inflammation Laboratory at the University of British Columbia-Okanagan in an overnight fasted state. Anthropometric measurements were obtained prior to insertion of an indwelling intravenous catheter into the antecubital vein for repeated blood sampling. Blood was collected into EDTA tubes (BD, 367863) and immediately centrifuged at 2000 rpm for 15 min and the top layer of plasma was aliquoted and frozen at −80 °C. After baseline (0) blood sample collection, the oral BHB supplement or placebo was consumed in liquid form (~30-65 mL). The BHB supplement (H.V.M.N®, USA) in the form of the ketone monoester (R)-3-hydroxybutyl (R)-3-hydroxybutyrate (AG®, TDeltaS, Oxford, UK) contained 0.4 g mL-1 BHB, natural flavoring, and <2% stevia leaf extract. The taste-matched placebo drink contained the same natural flavoring as the ketone supplement, stevia leaf extract, 5 mL of Bittrex stock (0.005 g of denatonium benzoate powder in 40 ml of water) and 1.5 mL of arrowroot stock (2 g of arrowroot powder in 50 ml of water) to match the bitter flavor and viscosity of the ketone monoester. Supplements were dispensed into opaque 80 ml bottles with volume calculated for 0.3 g BHB/kg body weight and labelled either A or B by a third-party researcher. Blinding was maintained until completion of data collection and analyses.

CNDP2 [3] = molecular target: T1, CNDP2; assay: In situ live cell enzyme activity assay, CNDP2- or GFP-transfected HEK293T cells; type: cell-based; set-up: expressed in transfected cells; host or cells: HEK293T (lysate); conditions: role: product; BHB-treated; conditioned media
Protocol: Cellular enzyme activity assays. Cells were plated in 12-well plates at 70-80% confluence. The next day, cells were washed two times with PBS and incubated in 0.5 ml serum-free medium. After overnight incubation, 400 μl of medium was removed and 20 μl of 1 M HCl were added to acidify the medium and to protonate keto amino acids. Ethyl acetate (400 μl) was added into each sample and reactions were vortexed for 30 s to extract keto amino acids into the organic layer. Reactions were centrifuged at 4° C. for 10 min at 15,000 r.p.m. and total of 300 μl from the top layer was transferred to a new Eppendorf tube and dried down under a stream of nitrogen. The residue was re-suspended in 150 μl of an 2:1:1 mixture of acetonitrile: methanol: water. The mixture was centrifuged at 4° C. for 10 min at 15,000 r.p.m. and the supernatant was transferred to a LC-MS vial. Cells were kept on ice to collect the lysate. PBS (150 μl) was added into each well and the cells scraped into an Eppendorf tube. This step was repeated again to ensure all cells were collected. Cells were then centrifuged at 4° C. for 10 min at 2,000g and the supernatant removed to obtain the cell pellet. A volume of 150 μl of a 2:1:1 mixture of acetonitrile: methanol:water mixture was used to lyse the cells and precipitate large proteins. […]

| synthesis activity in WT brain, liver, and quadriceps (CNDP2 [1]; BHB 20 mM + Phe 20 mM) | reduction of synthesis activity in CNDP2-KO vs WT, brain (CNDP2 [1]; BHB 20 mM + Phe 20 mM, brain) [%] | reduction of synthesis activity in CNDP2-KO vs WT, gut (CNDP2 [1]; BHB 20 mM + Phe 20 mM, gut) [%] | reduction of synthesis activity in CNDP2-KO vs WT, kidney (CNDP2 [1]; BHB 20 mM + Phe 20 mM, kidney) [%] | reduction of synthesis activity in CNDP2-KO vs WT, liver (CNDP2 [1]; BHB 20 mM + Phe 20 mM, liver) [%] | reduction of synthesis activity in CNDP2-KO vs WT, quadriceps (CNDP2 [1]; BHB 20 mM + Phe 20 mM, quadriceps) [%] | elevation of plasma keto amino acid after ketone ester drink [2] [fold] | keto amino acid production in CNDP2-transfected live cells (CNDP2 [3]) | BHB-amino acid synthesis activity in CNDP2-KO kidney and gut (CNDP2 [1]; BHB 20 mM + amino acid 20 mM) | SMILES | synthesis activity in WT kidney and gut (CNDP2 [1]; BHB 20 mM + amino acid 20 mM) |
| --- | --- | --- | --- | --- | --- | --- | --- | --- | --- | --- |
| lower, but detectable | > 85 | > 95 | > 95 | > 75 | > 60 | 3 | robust production |  | CC(O)CC(=O)N[C@@H](Cc1ccccc1)C(=O)O (stereo partly shown) [BHB-Phe, N-betahydroxybutyryl-phenylalanine] | highest BHB-Phe synthesis activity |
|  |  |  |  |  |  | 2.5 | robust production | largely abolished | CC(O)CC(=O)N[C@H](C(=O)O)C(C)C (stereo partly shown) [BHB-Val, N-betahydroxybutyryl-valine] | highest BHB-amino acid synthesis activity |
